Laboratory results taken from US9879015B2, “Pyrazino[1,2-a]indole compounds, their preparation and use in medicaments” (LABORATORIOS DEL DR. ESTEVE S.A., priority 2013, dated 2018).
Structures can show the parent of a compound that is named as a salt.

molecular target: T1, human sigma 1 receptor (Homo sapiens, UniProt Q99720); assay: Human sigma 1 receptor radioligand assay ([3H](+)-pentazocine, transfected HEK-293 membranes); type: binding; details: 5 nM [3H](+)-pentazocine, 37° C., 120 minutes
T1 construct: expressed in transfected cells; host or cells: HEK-293
Experimental: Biological Activity Pharmacological Study Human Sigma 1 Receptor Radioligand Assay
To investigate binding properties of sigma 1 receptor ligands to human sigma 1 receptor, transfected HEK-293 membranes and [^3H](+)-pentazocine (Perkin Elmer, NET-1056), as the radioligand, were used. The assay was carried out with 7 μg of membrane suspension, 5 nM of [^3H](+)-pentazocine in either absence or presence of either buffer or 10 μM Haloperidol for total and non-specific binding, respectively. Binding buffer contained Tris-HCl 50 mM at pH 8. Plates were incubated at 37° C. for 120 minutes. After the incubation period, the reaction mix was then transferred to MultiScreen HTS, FC plates (Millipore), filtered and plates were washed 3 times with ice-cold 10 mM TrisHCL (pH7.4). Filters were dried and counted at approximately 40% efficiency in a MicroBeta scintillation counter (Perkin-Elmer) using EcoScint liquid scintillation cocktail.

T1 sequence (Q99720 whole entry): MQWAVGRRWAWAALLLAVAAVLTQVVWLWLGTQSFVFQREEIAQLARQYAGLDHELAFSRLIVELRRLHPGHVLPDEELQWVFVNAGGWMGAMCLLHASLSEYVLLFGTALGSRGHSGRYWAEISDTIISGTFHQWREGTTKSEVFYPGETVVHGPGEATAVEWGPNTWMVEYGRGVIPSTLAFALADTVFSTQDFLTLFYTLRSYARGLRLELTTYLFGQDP

Ki [nM] | Structure (SMILES)
29.8 | CC(CN1CCn2c(cc3ccccc32)C1)N1CCN(C)CC1 (stereo not shown) [Example 1, 2-(2-(4-methylpiperazin-1-yl)propyl)-1,2,3,4-tetrahydropyrazino[1,2-a]indole]
3.9 | c1ccc2c(c1)cc1n2CCN(CCN2CCCCCC2)C1 [Example 3, 2-(2-(azepan-1-yl)ethyl)-1,2,3,4-tetrahydropyrazino[1,2-a]indole hydrochloride]
153 | CN1CCN(CCN2CCn3c(cc4ccccc43)C2)CC1 [Example 5, 2-(2-(4-methylpiperazin-1-yl)ethyl)-1,2,3,4-tetrahydropyrazino[1,2-a]indole hydrochloride]
19.9 | c1ccc2c(c1)cc1n2CCN(CCCN2CCCCCC2)C1 [Example 13, 2-(3-(azepan-1-yl)propyl)-1,2,3,4-tetrahydropyrazino[1,2-a]indole]
13.5 | c1ccc2c(c1)cc1n2CCN(CCCCN2CCCCC2)C1 [Example 14, 2-(4-(piperidin-1-yl)butyl)-1,2,3,4-tetrahydropyrazino[1,2-a]indole]
35.8 | CN1CCN(CCCCN2CCn3c(cc4ccccc43)C2)CC1 [Example 16, 2-(4-(4-methylpiperazin-1-yl)butyl)-1,2,3,4-tetrahydropyrazino[1,2-a]indole]

More lines, now with the values behind:

Structure (SMILES) | Ki [nM]
c1ccc2c(c1)CC1CN(CCN3CCCCCC3)CCN21 (stereo not shown) [Example 2, 2-(2-(azepan-1-yl)ethyl)-1,2,3,4,10,10a-hexahydropyrazino[1,2-a]indole] | 7.3
c1ccc(CC2CCN(CCN3CCn4c(cc5ccccc54)C3)CC2)cc1 [Example 4, 2-(2-(4-benzylpiperidin-1-yl)ethyl)-1,2,3,4-tetrahydropyrazino[1,2-a]indole hydrochloride] | 14.6
CC(CN1CCn2c(cc3ccccc32)C1)N1CCC(Cc2ccccc2)CC1 (stereo not shown) [Example 6, 2-(2-(4-benzylpiperidin-1-yl)propyl)-1,2,3,4-tetrahydropyrazino[1,2-a]indole maleate] | 175
CN(C)CCCCN1CCn2c(cc3ccccc32)C1 [Example 7, 4-(3,4-dihydropyrazino[1,2-a]indol-2(1H)-yl)-N,N-dimethylbutan-1-amine] | 89.1
Cc1c2n(c3ccccc13)CCN(CCN1CCCCCC1)C2 [Example 8, 2-(2-(azepan-1-yl)ethyl)-10-methyl-1,2,3,4-tetrahydropyrazino[1,2-a]indole] | 12.5
Fc1ccc2c(c1)cc1n2CCN(CCN2CCCCCC2)C1 [Example 9, 2-(2-(azepan-1-yl)ethyl)-8-fluoro-1,2,3,4-tetrahydropyrazino[1,2-a]indole] | 1.9
Cc1ccc2c(c1)cc1n2CCN(CC(C)N2CCCCCC2)C1 (stereo not shown) [Example 10, 2-(2-(azepan-1-yl)propyl)-8-methyl-1,2,3,4-tetrahydropyrazino[1,2-a]indole] | 7.4
Cc1c2n(c3ccccc13)CCN(CCN1CCC(Cc3ccccc3)CC1)C2 [Example 11, 2-(2-(4-benzylpiperidin-1-yl)ethyl)-10-methyl-1,2,3,4-tetrahydropyrazino[1,2-a]indole] | 21.4
Fc1ccc2c(c1)cc1n2CCN(CCCCN2CCCCC2)C1 [Example 12, 8-fluoro-2-(4-(piperidin-1-yl)butyl)-1,2,3,4-tetrahydropyrazino[1,2-a]indole] | 7.6
Fc1ccc2c(c1)cc1n2CCN(CCCCN2CCCCCC2)C1 [Example 15, 2-(4-(azepan-1-yl)butyl)-8-fluoro-1,2,3,4-tetrahydropyrazino[1,2-a]indole] | 8.6
CC(CN1CCn2c(cc3ccccc32)C1)N1CCN(C2CCCCC2)CC1 (stereo not shown) [Example 17, 2-(2-(4-cyclohexylpiperazin-1-yl)propyl)-1,2,3,4-tetrahydropyrazino[1,2-a]indole] | 9.2
CC(CN1CCn2c(cc3cc(F)ccc32)C1)N1CCN(C)CC1 (stereo not shown) [Example 18, 8-fluoro-2-(2-(4-methylpiperazin-1-yl)propyl)-1,2,3,4-tetrahydropyrazino[1,2-a]indole] | 14.1
CN(C)CCCCN1CCN2c3ccccc3CC2C1 (stereo not shown) [Example 19, N,N-dimethyl-4-(3,4,10,10a-tetrahydropyrazino[1,2-a]indol-2(1H)-yl)butan-1-amine] | 153
